Data on six compounds can be found in patent US20050130986A1, “Treatment of spondylarthropathies” (priority 2003, published 2005).

The test system of data set [1] is patient with severe spondyloarthropathy. As to the kind of experiment: Findings in a patient with severe spondyloarthropathy (Example 1, 18 month treatment). It counts as in vivo, human. To be noted: for efficacy of previous anti-rheumatic medication: patient history, used alone and in various combinations. An excerpt: The patient is a person who has radiologically verified bilateral sacroilitis and disease of large joints. They are also positive for the HLA-B27 antigen. The patient fulfills the ESSG criteria and the Amor criteria for spondylarthorpathy. […] In addition they have had symptoms also in small peripheral joints such as fingers and toes. […] The previous anti-rheumatic medication has included methotrexate, cyclosporine, infliximab, intramusclar.
During the study the vital signs and blood chemistry was controlled first weekly, then biweekly and after three months once per month.
No corticosteroid injections are given.

Data set [2] relates to patient with psoriasis arthropathy.
Data set [3] deals with spondylarthropathy. To be noted: cited from earlier work; for efficacy observed in spondylarthropathy: mainly in the treatment of peripheral arthritis.

Entries after “also recorded” stand apart in the source; their conditions may differ.

On to `Cn1cnc([N+](=O)[O-])c1Sc1ncnc2nc[nH]c12` [azathioprine, reference compound], for which the “efficacy of previous anti-rheumatic medication” value in data set [1] was “inefficient”.

With `Cc1oncc1C(=O)Nc1ccc(C(F)(F)F)cc1` [leflunomide, reference compound], the “efficacy of previous anti-rheumatic medication” value in data set [1] was “inefficient”.

As to `CN(Cc1cnc2nc(N)nc(N)c2n1)c1ccc(C(=O)N[C@@H](CCC(=O)O)C(=O)O)cc1` [methotrexate, reference compound], the “efficacy of previous anti-rheumatic therapy” value in data set [2] (patient history, methotrexate 20 mg per week, cyclosporine 150 mg, discontinued) is reported as “lack of efficacy”. Also, the “efficacy in sporiasis arthropathy” value in data set [3] (in vivo) was “some efficacy”. The “efficacy observed in spondylarthropathy” value in data set [3] is recorded as “minor efficacy”. Further, the “efficacy of previous anti-rheumatic medication” value in data set [1] is given as “inefficient”.

In the case of `Cc1ccc(NC(=O)c2ccc(CN3CCN(C)CC3)cc2)cc1Nc1nccc(-c2cccnc2)n1` [study drug, 4-[(4-methyl-1-piperazin-1-ylmethyl)-N-[4-methyl-3-[4-(3-pyridinyl)-2-pyrimidinyl]amino]phenyl]benzamide Monomethanesulfonate], the “side effects or infections during the treatment” value in data set [2] (3 month study) is “No serious side effects or infections; also recorded: slight tiredness and mild muscle cramps”. In addition, the “number of swollen joints” value in data set [2] (after three month treatment, from 5, oral, up to 400 mg per day, added to naproxen, injected joints omitted) is 2. In addition, the BASDAI score in data set [2] (after three month treatment, from 6.5) stood at 3.1. In addition, the “number of tender joints” value in data set [2] (after three month treatment, from 10) is given as 0. Also, the “general pain (VAS)” value in data set [2] (after three month treatment, from 33 mm) was 12 mm. Further, in data set [2] (after three month treatment, from 34 mm), the “night pain experienced by the patient (VAS)” value stood at 4 mm. This compound had an ESR in data set [2] (after three month treatment, from 40) of 12. Besides, in data set [2] (after three month treatment, from 41 mm), the “disease activity (VAS)” value came to 23 mm. For the same compound, the CRP in data set [2] (after three month treatment, from 47) was found to be 25; in data set [1] (after the treatment (18 months), 42 mg/L before treatment) it was 11 mg/L. Moreover, in data set [1] (18 months of treatment), the “infections during the treatment” value is “no significant infections”. The swollen joint count in data set [1] (after 18 month treatment, 31 before treatment, oral, up to 400 mg per day, added to hydroxychloroquine, prednisone, ibuprofen) was found to be 5. In addition, the side effects result in data set [1] (after 18 months of treatment) was “no serious side effects have been observed; also recorded: slight dryness of the skin”. Also, in data set [1] (after 18 months of treatment, 1.5 before treatment, high score = high disability), the “health assessment questionnaire score (HAQ)” value is 0.75. Moreover, the “time after start at which antirheumatic effect could be observed (movements in shoulder joints improved)” value in data set [1] (after study drug was started) is “two”. The tender joint count in data set [1] (after the treatment (18 months), 10 before treatment) amounted to 1. For the same compound, the erythrocyte sedimentation rate in data set [1] (after the treatment (18 months), 28 mm/h before treatment) came out at 11 mm/h. Also, in data set [1] (after treatment (18 months), 37 mm before treatment), the “pain experienced by the patient, visual analogue scale (VAS)” value was 11 mm. The “disease activity as estimated by the patient (VAS)” value in data set [1] (after treatment (18 months), 69 mm before treatment) is 11 mm.

Turning to `O=C(O)c1cc(/N=N/c2ccc(S(=O)(=O)Nc3ccccn3)cc2)ccc1O` [sulfasalazine], the “efficacy observed in spondylarthropathy” value in data set [3] was “minor efficacy”.

infliximab: the “efficacy of previous anti-rheumatic medication” value in data set [1] is on record as “inefficient”.
